ChEMBL document CHEMBL4808180, “Identification of 2,2-Dimethylbutanoic Acid (HST5040), a Clinical Development Candidate for the Treatment of Propionic Acidemia and Methylmalonic Acidemia” (J Med Chem, 2021)

Legend:
[1] = Reduction of propionyl carnitine in human hepatocytes derived from propionic acidemia patient pretreated for 30 mins followed by 13C-isoleucine addition and measured after 1 hr by MS/MS analysis; assay type: functional, cell-based; details: hepatocyte
[2] = Reduction of acetyl carnitine in human hepatocytes derived from methylmalonic acidemia patient pretreated for 30 mins followed by 13C-isoleucine addition and measured after 1 hr by MS/MS analysis; assay type: functional, cell-based; details: hepatocyte
[3] = Tmax in CD1 mouse at 30 mg/kg, iv; assay type: ADME, organism-based; details: in vivo
[4] = Drug metabolism in Sprague-Dawley rat plasma assessed as HST5040-carnitine metabolite formation at 10 mg/kg administered as single dose by LC/MS analysis; assay type: ADME, organism-based; details: in vivo
[5] = Drug metabolism in rat hepatocytes assessed as beta-oxidation by measuring phase1 metabolite formation at 50 uM measured after 4 hrs; assay type: ADME, cell-based, Hepatocyte

Tmax [3]: 7.5 min
Drug metabolism [4]: Metabolite_Detected
Drug metabolism [5]: Metabolite_Notdetected
Structure (SMILES): CCC(C)(C)C(=O)O [DIMEBUTIC ACID]
EC50 [1]: 2.6 µM
EC50 [2]: 4.3 µM
